This note sets out measurements from US11154529B2, “Phosphaplatin liquid formulations” (Phosplatin Therapeutics Inc., priority 2016, dated 2021).

The series is described as follows: Decrease in potency by HPLC of aqueous 1 mg/mL (R,R)-pyrodach-2 solutions in a variety of buffers at ambient temperature. The format is physicochemical. The text has this:
Chem. 47, 7942 (2008)). Thus, simple dissolution of (R,R)-pyrodach-2 affords an acidic solution. […] At higher pHs, where the acid groups of (R,R)-pyrodach-2 are ionized, the solubility of (R,R)-pyrodach-2 increases. In addition, deprotonation of the acid groups in (R,R)-pyrodach-2 dramatically reduces the rate of hydrolytic degradation. […] Thus, controlling the pH of an aqueous solution in the physiological pH range, much less the accurate and reproducible preparation of aqueous (R,R)-pyrodach-2 solutions in this pH range by pH adjustment of an aqueous solution of (R,R)-pyrodach-2 with hydroxide base, is extremely difficult. […] This presents a unique challenge as the pyrophosphate ligand in (R,R)-pyrodach-2 is kinetically labile in solution and can potentially undergo reaction with anions present in many buffers. […] [table]

For the compound `O=P1(O)OP(=O)(O)[O][Pt]2([NH][C@@H]3CCCC[C@H]3[NH]2)[O]1` (stereo partly drawn) [(R,R)-pyrodach-2, (R,R)-trans-1,2-cyclohexanediamine-(dihydrogenpyrophosphato)platinum(II)], the “Decrease in Potency” value runs as follows: (Acetate 20 mM, pH 5.32, 7 days) 13.5%; (Citric acid 20 mM, pH 6.51, 4 days) 1.9%; (Citric acid 20 mM, pH 6.51, 11 days) 3.9%; (L-arginine 20 mM, pH 7.72, 4 days) 4.0%; (L-arginine 20 mM, pH 7.72, 11 days) 10%; (NH4HCO3 20 mM, pH 7.68, 14 days) 8.0%. Also, the “Decrease in Potency” value came out at 18.0% (NH4HCO3 50 mM, pH 7.83, 14 days); 47.1% (NH4HCO3 100 mM, pH 7.94, 14 days); 1.9% (Triethanolamine 20 mM, pH 7.97, 4 days); 5.7% (Triethanolamine 20 mM, pH 7.97, 11 days).
